Measured values as given in PubChem BioAssay (NCI).
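Growth conditions: 96-well plates. Treatment: test compound, 48 hours, 5 concentrations. Analysis: linear interpolation between bracketing concentrations; unreached endpoints set to highest concentration. The concentration for full growth arrest is given as TGI.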

Legend:
Test in all cases: NCI tumour cell line growth inhibition, 48 h
HOP-18 NSCLC = tested on: HOP-18 NSCLC
HT29 colon = tested on: HT29 colon
TK-10 renal = tested on: TK-10 renal
SW-620 colon = tested on: SW-620 colon
SF-295 CNS = tested on: SF-295 CNS
RXF 393 renal = tested on: RXF 393 renal
RXF-631 renal = tested on: RXF-631 renal
MOLT-4 leukemia = tested on: MOLT-4 leukemia
HL-60(TB) leukemia = tested on: HL-60(TB) leukemia
SK-MEL-28 melanoma = tested on: SK-MEL-28 melanoma
SNB-75 CNS = tested on: SNB-75 CNS
SN12C renal = tested on: SN12C renal
SR leukemia = tested on: SR leukemia
RPMI-8226 leukemia = tested on: RPMI-8226 leukemia
OVCAR-4 ovarian = tested on: OVCAR-4 ovarian
UACC-62 melanoma = tested on: UACC-62 melanoma
HCT-15 colon = tested on: HCT-15 colon
SNB-78 CNS = tested on: SNB-78 CNS
A549 NSCLC = tested on: A549 NSCLC
K-562 leukemia = tested on: K-562 leukemia
OVCAR-5 ovarian = tested on: OVCAR-5 ovarian
M14 melanoma = tested on: M14 melanoma
ACHN renal = tested on: ACHN renal
CCRF-CEM leukemia = tested on: CCRF-CEM leukemia
NCI-H460 lung = tested on: NCI-H460 lung
KM12 colon = tested on: KM12 colon
NCI-H23 lung = tested on: NCI-H23 lung
DMS 114 small cell lung = tested on: DMS 114 small cell lung
LOX IMVI melanoma = tested on: LOX IMVI melanoma
OVCAR-3 ovarian = tested on: OVCAR-3 ovarian
UACC-257 melanoma = tested on: UACC-257 melanoma
NCI-H522 lung = tested on: NCI-H522 lung
M19-MEL melanoma = tested on: M19-MEL melanoma
U251 CNS = tested on: U251 CNS
DMS 273 small cell lung = tested on: DMS 273 small cell lung
DLD-1 colon = tested on: DLD-1 colon
786-0 renal = tested on: 786-0 renal
LXFL 529 NSCLC = tested on: LXFL 529 NSCLC
OVCAR-8 ovarian = tested on: OVCAR-8 ovarian
KM20L2 colon = tested on: KM20L2 colon
HCT-116 colon = tested on: HCT-116 colon
A498 renal = tested on: A498 renal
UO-31 renal = tested on: UO-31 renal
SK-MEL-2 melanoma = tested on: SK-MEL-2 melanoma
SK-MEL-5 melanoma = tested on: SK-MEL-5 melanoma
CAKI-1 renal = tested on: CAKI-1 renal
XF 498 CNS = tested on: XF 498 CNS
SF-539 CNS = tested on: SF-539 CNS
MALME-3M melanoma = tested on: MALME-3M melanoma
EKVX NSCLC = tested on: EKVX NSCLC
SNB-19 CNS = tested on: SNB-19 CNS
HCC-2998 colon = tested on: HCC-2998 colon
NCI-H226 lung = tested on: NCI-H226 lung
COLO 205 colon = tested on: COLO 205 colon
HOP-62 NSCLC = tested on: HOP-62 NSCLC
IGROV1 ovarian = tested on: IGROV1 ovarian
HOP-92 NSCLC = tested on: HOP-92 NSCLC
SK-OV-3 ovarian = tested on: SK-OV-3 ovarian
SF-268 CNS = tested on: SF-268 CNS
MCF7 breast = tested on: MCF7 breast
SN12K1 renal = tested on: SN12K1 renal
P388 leukemia = tested on: P388 leukemia
P388/ADR leukemia = tested on: P388/ADR leukemia
NCI/ADR-RES ovarian = tested on: NCI/ADR-RES ovarian

Measured: TGI

CN=C1CN=C(OP(=O)(N2CCOCC2)N2CCOCC2)c2cc(Cl)ccc2N1
not listed: COLO 205 colon | HOP-62 NSCLC | IGROV1 ovarian | HOP-92 NSCLC | SK-OV-3 ovarian | SF-268 CNS | MCF7 breast | SN12K1 renal | P388 leukemia | P388/ADR leukemia | NCI/ADR-RES ovarian
> 100 µM: all other assays above

COc1cc(/C=C2\NC(=O)C3Cc4c(OC)c(C)c(OC)c(OC)c4C2N3C)c(OC)c(C)c1OC (centres undefined)
not listed: SW-620 colon | RPMI-8226 leukemia | HCT-15 colon | NCI-H460 lung | SK-MEL-2 melanoma | MCF7 breast | SN12K1 renal | P388 leukemia | P388/ADR leukemia | NCI/ADR-RES ovarian
> 100 µM: all other assays above

O=c1oc2cc(O)ccc2c2oc3cc(O)ccc3c12
> 88.7 µM: SN12C renal
70.2 µM: HCT-116 colon
> 12.5 µM: DMS 114 small cell lung
> 107 µM: CAKI-1 renal
125 µM: A549 NSCLC
> 112 µM: SN12K1 renal
> 19.8 µM: XF 498 CNS
> 82.5 µM: SF-268 CNS
70.8 µM: SK-OV-3 ovarian
3.4 µM: A498 renal
31.9 µM: NCI-H522 lung
72.5 µM: COLO 205 colon
93.5 µM: U251 CNS
> 86.3 µM: SNB-78 CNS
> 118 µM: HCC-2998 colon
54.1 µM: HOP-62 NSCLC
122 µM: MCF7 breast | SF-539 CNS
123 µM: KM20L2 colon
91.7 µM: SNB-19 CNS
> 117 µM: UO-31 renal
> 102 µM: LOX IMVI melanoma
114 µM: OVCAR-3 ovarian
> 113 µM: NCI-H460 lung
69.9 µM: SK-MEL-5 melanoma
> 121 µM: DMS 273 small cell lung
83.3 µM: MOLT-4 leukemia
124 µM: RXF 393 renal | UACC-257 melanoma
not listed: TK-10 renal | RXF-631 renal | SR leukemia | M14 melanoma | ACHN renal | 786-0 renal | LXFL 529 NSCLC
> 125 µM: all other assays above
